Assay results taken from patent publication US12215112B2, “CD151 inhibitors” (ESFAM BIOTECH PTY LTD, priority 2020, dated 2025).

Test system: PC3 cells
Experiment: xCELLigence RTCA real-time cell invasion assay (CIM plate, Matrigel) on PC3 prostate cancer cells
Assay type: cell-based
Settings: Homo sapiens, PC-3, compound 25 uM to 1 uM, cell index monitored for 72 hours, four-parameter dose-response curve, read-out: IC50, Effect of compounds on the invention on prostate cancer cells
Method: The media antibiotics and serum were purchased from Invitrogen (Life Technologies). PC3 cells were purchased from ATCC (Granville, NSW, Australia). PC3 cells were expanded in cell culture T75 flasks with vented cap and then preserved in low passage number. The medium used for PC3 cells was RPMI (GlutaMAX) supplemented with 10% FCS and 1% penicillin/streptomycin (culture media). The cells were maintained at 37° C. in a humidified 95% (v/v) air/5% (v/v) CO2 environment and were grown up to 80% confluence.
XCELLigence® real-time cell analysis (RTCA) instrument (ACEA Biosciences), 16-well ACEA CIM-Plates, 16-well ACEA E-Plat and assembly tool were purchased from ELITechGroup empowering IVD (Braeside, Australia). The Matrigel was purchased from Corning (Australia).
To measure cell invasion under compound treatment the upper chamber of the CIM plate was coated with 5% Matrigel diluted in SF RPMI (20 μl) and incubated in a 37° C. tissue culture incubator for four hours. Using the assembly tool to support the chambers the lower chamber was filled with (160 μl) of culture media containing the compound in specific concertation from 25 uM to 1 uM and two controls (DMSO 0.1% and ESFAM 4C 10 uM) (see the schematic in FIG. 1). Once the upper chamber was placed on the top of the lower chamber it was loaded with (40 μl) serum-free (SF) RPMI containing the compound as previously stated. After one hour calibration in 37° C., plates were placed into the xCELLigence station, and the base-line electric impedance was measured to confirm that all wells and connections were working properly. In case of connection problem, the software automatically informs the researcher about the nature of the problem in the message section. Subsequently cells were trypsinized and upon harvesting and counting they were diluted in SF RPMI to desired density (3×10^4) and seeded (100 μl) in the wells. After 30 minutes of incubation in room-temperature to allow cell attachment the plates were loaded in the xCELLigence RTCA DP machine. The cell invasion was monitored in real-time for the duration of 72 hours. […]
The xCELLigence system automatically monitored the electrical impedance value of each well and expressed as a cell index (CI) value for the duration of 72 hours. The data for treatments was automatically grouped as the mean±standard deviation. The software version used in these experiments is 1.2.1. The electronic record of the experimental data is automatically saved in file that cannot be altered or changed by the researcher.
Statistical analysis was performed using Microsoft® Office EXCEL and GraphPad Prism 7. The IC50 was calculated from the four-parameter dose-response curve (log(inhibitor) vs. response-variable slopes). Where the row-data was inserted in GraphPad Prism 7 (Dose response x-log(dose)) and analysed for XY nonlinear regression (curve fit), dose response-inhibition, log(inhibitor) vs response variable slope (four parameters). For the IC90 calculation the log(IC50)=log(IC90)-(1/HillSlope)*log(9) equation was used in EXCEL based on the raw data extracted from xCELLigence system and the dose-response curve.

Row | Structure (SMILES) | IC50 [µM]
1 | CN(Cc1ccccc1)c1cc(-c2cn[nH]c2)n2nc(C(=O)Nc3ccc(Cl)cc3)cc2n1 [Compound 29, 5-(benzyl(methyl)amino)-N-(4-chlorophenyl)-7-(1H-pyrazol-4-yl)pyrazolo[1,5-a]pyrimidine-2-carboxamide] | 3.58
2 | CN(Cc1ccccc1)c1cc(-c2cn[nH]c2)n2nc(C(=O)Nc3cccc(Cl)c3)cc2n1 [Compound 30, 5-(benzyl(methyl)amino)-N-(3-chlorophenyl)-7-(1H-pyrazol-4-yl)pyrazolo[1,5-a]pyrimidine-2-carboxamide] | 1.61
3 | CN(Cc1ccccc1)c1cc(-c2cn[nH]c2)n2nc(C(=O)Nc3ccccc3Cl)cc2n1 [Compound 31, 5-(benzyl(methyl)amino)-N-(2-chlorophenyl)-7-(1H-pyrazol-4-yl)pyrazolo[1,5-a]pyrimidine-2-carboxamide] | 2.21
4 | CN(Cc1ccccc1)c1cc(-c2cn[nH]c2)n2nc(C(=O)Nc3ccc(C(F)(F)F)cc3)cc2n1 [Compound 32, 5-(benzyl(methyl)amino)-7-(1H-pyrazol-4-yl)-N-(4-(trifluoromethyl)phenyl)pyrazolo[1,5-a]pyrimidine-2-carboxamide] | 3.04
5 | CN(Cc1ccccc1)c1cc(-c2cn[nH]c2)n2nc(C(=O)Nc3cccc(C(F)(F)F)c3)cc2n1 [Compound 33, 5-(benzyl(methyl)amino)-7-(1H-pyrazol-4-yl)-N-(3-(trifluoromethyl)phenyl)pyrazolo[1,5-a]pyrimidine-2-carboxamide] | 2.59
6 | CN(Cc1ccccc1)c1cc(-c2cn[nH]c2)n2nc(C(=O)Nc3ccccc3C(F)(F)F)cc2n1 [Compound 34, 5-(benzyl(methyl)amino)-7-(1H-pyrazol-4-yl)-N-(2-(trifluoromethyl)phenyl)pyrazolo[1,5-a]pyrimidine-2-carboxamide] | 8.97
7 | CN(Cc1ccccc1)c1cc(-c2cn[nH]c2)n2nc(C(=O)Nc3ccc(F)cc3)cc2n1 [Compound 35, 5-(benzyl(methyl)amino)-N-(4-fluorophenyl)-7-(1H-pyrazol-4-yl)pyrazolo[1,5-a]pyrimidine-2-carboxamide] | 1.4
8 | CN(Cc1ccccc1)c1cc(-c2cn[nH]c2)n2nc(C(=O)Nc3cccc(F)c3)cc2n1 [Compound 36, 5-(benzyl(methyl)amino)-N-(3-fluorophenyl)-7-(1H-pyrazol-4-yl)pyrazolo[1,5-a]pyrimidine-2-carboxamide] | 1.47
9 | CN(Cc1ccccc1)c1cc(-c2cn[nH]c2)n2nc(C(=O)Nc3ccccc3F)cc2n1 [Compound 37, 5-(benzyl(methyl)amino)-N-(2-fluorophenyl)-7-(1H-pyrazol-4-yl)pyrazolo[1,5-a]pyrimidine-2-carboxamide] | 3.1
10 | COc1ccc(CN(C)c2cc(-c3cn[nH]c3)n3nc(C(=O)Nc4ccc(Cl)cc4)cc3n2)cc1 [Compound 38, N-(4-chlorophenyl)-5-((4-methoxybenzyl)(methyl)amino)-7-(1H-pyrazol-4-yl)pyrazolo[1,5-a]pyrimidine-2-carboxamide] | 4.36
11 | COc1cccc(CN(C)c2cc(-c3cn[nH]c3)n3nc(C(=O)Nc4ccc(Cl)cc4)cc3n2)c1 [Compound 39, N-(4-chlorophenyl)-5-((3-methoxybenzyl)(methyl)amino)-7-(1H-pyrazol-4-yl)pyrazolo[1,5-a]pyrimidine-2-carboxamide] | 8.46
12 | O=C(Nc1cccc(OC2CCC2)c1)c1cc2nc(N3Cc4ccccc4C3)cc(-c3cn[nH]c3)n2n1 [Compound 50, N-(3-cyclobutoxyphenyl)-5-(isoindolin-2-yl)-7-(1H-pyrazol-4-yl)pyrazolo[1,5-a]pyrimidine-2-carboxamide] | 1.46

The next lines start with the values.

Row | IC50 [µM] | Structure (SMILES)
13 | 3.96 | COc1ccccc1CN(C)c1cc(-c2cn[nH]c2)n2nc(C(=O)Nc3ccc(Cl)cc3)cc2n1 [Compound 40, N-(4-chlorophenyl)-5-((2-methoxybenzyl)(methyl)amino)-7-(1H-pyrazol-4-yl)pyrazolo[1,5-a]pyrimidine-2-carboxamide]
14 | 9.86 | CN(Cc1ccc(C(F)(F)F)cc1)c1cc(-c2cn[nH]c2)n2nc(C(=O)Nc3ccc(Cl)cc3)cc2n1 [Compound 41, N-(4-chlorophenyl)-5-(methyl(4-(trifluoromethyl)benzyl)amino)-7-(1H-pyrazol-4-yl)pyrazolo[1,5-a]pyrimidine-2-carboxamide]
15 | 2.86 | CN(Cc1cccc(C(F)(F)F)c1)c1cc(-c2cn[nH]c2)n2nc(C(=O)Nc3ccc(Cl)cc3)cc2n1 [Compound 42, N-(4-chlorophenyl)-5-(methyl(3-(trifluoromethyl)benzyl)amino)-7-(1H-pyrazol-4-yl)pyrazolo[1,5-a]pyrimidine-2-carboxamide]
16 | 6.09 | CN(Cc1ccccc1C(F)(F)F)c1cc(-c2cn[nH]c2)n2nc(C(=O)Nc3ccc(Cl)cc3)cc2n1 [Compound 43, N-(4-chlorophenyl)-5-(methyl(2-(trifluoromethyl)benzyl)amino)-7-(1H-pyrazol-4-yl)pyrazolo[1,5-a]pyrimidine-2-carboxamide]
17 | 12.2 | CN(Cc1ccc(Cl)cc1)c1cc(-c2cn[nH]c2)n2nc(C(=O)Nc3ccc(Cl)cc3)cc2n1 [Compound 44, 5-((4-chlorobenzyl)(methyl)amino)-N-(4-chlorophenyl)-7-(1H-pyrazol-4-yl)pyrazolo[1,5-a]pyrimidine-2-carboxamide]
18 | 10.8 | CN(Cc1cccc(Cl)c1)c1cc(-c2cn[nH]c2)n2nc(C(=O)Nc3ccc(Cl)cc3)cc2n1 [Compound 45, 5-((3-chlorobenzyl)(methyl)amino)-N-(4-chlorophenyl)-7-(1H-pyrazol-4-yl)pyrazolo[1,5-a]pyrimidine-2-carboxamide]
19 | 7 | CN(Cc1ccccc1Cl)c1cc(-c2cn[nH]c2)n2nc(C(=O)Nc3ccc(Cl)cc3)cc2n1 [Compound 46, 5-((2-chlorobenzyl)(methyl)amino)-N-(4-chlorophenyl)-7-(1H-pyrazol-4-yl)pyrazolo[1,5-a]pyrimidine-2-carboxamide]
20 | 6.18 | O=C(Nc1cccc(N2CCOCC2)c1)c1cc2nc(N3Cc4ccccc4C3)cc(-c3cn[nH]c3)n2n1 [Compound 47, 5-(isoindolin-2-yl)-N-(3-morpholinophenyl)-7-(1H-pyrazol-4-yl)pyrazolo[1,5-a]pyrimidine-2-carboxamide]
21 | 2.77 | CN1CCN(c2cccc(NC(=O)c3cc4nc(N5Cc6ccccc6C5)cc(-c5cn[nH]c5)n4n3)c2)CC1 [Compound 48, 5-(isoindolin-2-yl)-N-(3-(4-methylpiperazin-1-yl)phenyl)-7-(1H-pyrazol-4-yl)pyrazolo[1,5-a]pyrimidine-2-carboxamide]
22 | 5.85 | CC(=O)N1CCN(c2cccc(NC(=O)c3cc4nc(N5Cc6ccccc6C5)cc(-c5cn[nH]c5)n4n3)c2)CC1 [Compound 49, N-(3-(4-acetylpiperazin-1-yl)phenyl)-5-(isoindolin-2-yl)-7-(1H-pyrazol-4-yl)pyrazolo[1,5-a]pyrimidine-2-carboxamide]
23 | 3.55 | COc1cc(NC(=O)c2cc3nc(N4Cc5ccccc5C4)cc(-c4cn[nH]c4)n3n2)cc(OC)c1 [Compound 51, N-(3,5-dimethoxyphenyl)-5-(isoindolin-2-yl)-7-(1H-pyrazol-4-yl)pyrazolo[1,5-a]pyrimidine-2-carboxamide]
24 | 5.52 | COc1cc(Cl)cc(NC(=O)c2cc3nc(N4Cc5ccccc5C4)cc(-c4cn[nH]c4)n3n2)c1 [Compound 52, N-(3-chloro-5-methoxyphenyl)-5-(isoindolin-2-yl)-7-(1H-pyrazol-4-yl)pyrazolo[1,5-a]pyrimidine-2-carboxamide]
